This is an account of results in patent US20230181493A1, “BIOMARKERS RELATED TO PARKINSON'S DISEASE AND METHODS OF USING THE SAME” (SENDA BIOSCIENCES, INC., priority 2020, published 2023).

For data set [1], the target named is T1, Tyrosine decarboxylase (tdc) (Enterococcus faecalis, UniProt P0DTQ4).
T1 construct: made in house
T1 sequence (P0DTQ4 1-620): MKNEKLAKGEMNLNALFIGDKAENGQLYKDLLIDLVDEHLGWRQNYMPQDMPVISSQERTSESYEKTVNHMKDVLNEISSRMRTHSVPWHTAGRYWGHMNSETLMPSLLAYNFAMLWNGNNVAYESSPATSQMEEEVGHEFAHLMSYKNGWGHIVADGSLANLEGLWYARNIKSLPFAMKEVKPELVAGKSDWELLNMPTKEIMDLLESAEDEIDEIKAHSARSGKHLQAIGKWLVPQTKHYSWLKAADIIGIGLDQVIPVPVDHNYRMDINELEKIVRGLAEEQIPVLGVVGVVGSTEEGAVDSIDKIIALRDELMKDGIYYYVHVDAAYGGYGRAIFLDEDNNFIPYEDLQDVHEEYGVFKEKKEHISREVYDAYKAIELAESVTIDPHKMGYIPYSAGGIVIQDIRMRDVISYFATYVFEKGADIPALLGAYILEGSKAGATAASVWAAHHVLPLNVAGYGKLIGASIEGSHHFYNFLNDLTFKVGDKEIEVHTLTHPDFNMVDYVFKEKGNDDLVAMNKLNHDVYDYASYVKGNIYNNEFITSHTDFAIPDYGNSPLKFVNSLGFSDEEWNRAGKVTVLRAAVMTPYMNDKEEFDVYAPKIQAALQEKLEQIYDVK
The experiment in a line: Inhibition of tyrosine decarboxylase in vitro. Format: biochemical. The following applies: 60 min preincubation of tdc with inhibitor at room temperature; dopamine formed from levodopa, LC-MS. The procedure: Tyrosine decarboxylase (tdc) was obtained by following a previously published literature procedure (Rekdal et al., Science 2019; 364(6445):eaau6323). The tdc (220 nM final concentration) was thawed on ice and then mixed with pyridoxal-5-phosphate (2.2 mM final concentration) in 200 mM sodium acetate buffer, pH 5.5 optionally containing 1 mM TCEP. To this mixture was added inhibitor at a final concentration of 1000, 333, 111, 37, 12, 4.1, 1.4, or 0 μM (final volume: 100 μL; inhibitor was 100-fold concentrated in a solution of DMSO, H2O, or DMSO:H2O (1/1 v/v)). The protein-inhibitor mixture was incubated at room temperature for 60 min. 6 μL of this mixture was then withdrawn from each solution and mixed with 54 μL of 10 mM levodopa in 200 mM sodium acetate buffer pH 5.5. The final concentration of the reaction was 22 nM tdc, 220 μM pyridoxal-5-phosphate, 9 mM levodopa in 200 mM sodium acetate buffer pH 5.5 with 0-100 μM inhibitor. The reaction proceeded for 5 min at room temperature before being quenched by the addition of 540 μL acetonitrile containing 0.1% (v/v) formic acid supplemented with 200 nM tolbutamide as an internal standard. The reactions were centrifuged (3,000 g, 10 min), and then 100 μL of each supernatant was transferred to a fresh plate. 100 μL of acetonitrile containing 0.1% (v/v) formic acid supplemented with 200 nM tolbutamide was added. An external standard curve containing 0-150 μM dopamine was prepared in the exact same manner.
Dopamine formed in each reaction was quantified by using an Agilent 6470 triple quadrupole mass spectrometer equipped with an Acquity UPLC. Mobile phase A consisted of H2O containing 10 mM ammonium formate, pH 3.0 and supplemented with 0.1% (v/v) formic acid. Mobile phase B consisted of acetonitrile containing 10 mM ammonium formate, pH 3.0 and supplemented with 0.1% (v/v) formic acid. 5 μL of each sample was injected onto a BEH Amide column (Waters Corporation, 2.1×50 mm, 1.7 μm). The gradient was set to: 100% mobile phase B at 0 min, decreasing linearly to 65% mobile phase B by 1.5 min, held constant at 65% mobile phase B until 2.5 min, ramped back up to 100% mobile phase B by 2.6 min, and held constant at 100% mobile phase B until 4.2 min. The flow rate was 0.6 mL/min. The dopamine was detected by using the mass spectrometer in multiple reaction monitoring (MRM) mode, quantifying the transition 154.1 to 137.0 m/z in positive mode. The fragmentor setting was 74, the collision energy was 9, and the cell accelerator voltage was 4, and the dwell time was 20. Tolbutamide was monitored using MRM and quantifying the transition of 271.1 to 91.0 m/z in positive mode. The fragmentor setting was 88, the collision energy was 37, and the cell accelerator voltage was 4, and the dwell time was 20.
The amount of dopamine was quantified by normalizing the area to the area of tolbutamide internal standard within each sample. This relative response was then compared to that of the standard curve to obtain the dopamine formed within each sample. The concentration of dopamine formed as a function of the inhibitor concentration at the preincubation stage was plotted in GraphPad Prism 8, and the IC50 was calculated using the non-linear fit for the standard IC50 curve equation “[inhibitor] vs response (three parameters).”

The test system of another data set is E. faecalis v583. The experiment in a line: Inhibition of Enterococcus faecalis decarboxylation activity in vitro. The following applies: levodopa remaining in E. faecalis v583 culture, BHI broth pH 5, 1.5 mM levodopa, 24 h at 37° C., anaerobic, read-out: IC50 @ 60 min. Format: cell-based. The procedure: A vial of 200 μL of E. faecalis v583 was removed from a −80° C. freezer and thawed in an anaerobic chamber containing an atmosphere of either 95/5 N2/H2 (v/v) or 90/5/5 N2/H2/CO2 (v/v). 200 μL was inoculated into 10 mL of sterile, anaerobic BHI broth, pH 5 (adjusted with NaOH). The culture was grown overnight at 37° C. under anaerobic conditions.
After overnight incubation, 40 μL of the saturated starter culture was mixed with 744 μL of sterile, anaerobic BHI broth, pH 5 that had been supplemented with 1.5 mM levodopa. To this was added 16 μL of a 50-fold concentrated stock solution of inhibitor that had been dissolved in either DMSO, H2O, or DMSO:H2O (1:1 v/v). The final concentration of the inhibitor in each condition was 0, 0.001, 0.01, 0.1, 1, 10, or 100 μM. The contents of each incubation were mixed, and then 100 μL was transferred into a fresh 96-well plate. […]
The samples were analyzed by using an Agilent 6470 triple quadrupole mass spectrometer equipped with an Acquity UPLC. […] The levodopa was detected by using the mass spectrometer in multiple reaction monitoring (MRM) mode, quantifying the transition 198.1 to 151.9 m/z in positive mode. […] Tolbutamide was monitored using MRM and quantifying the transition of 271.1 to 91.0 m/z in positive mode. […]
The amount of levodopa was quantified by normalizing the area to the area of tolbutamide internal standard within each sample. […]

For data set [2] the following is noted: carbidopa administered with levodopa; cited from earlier work.
The subject of data set [3] is microbial enzyme TDC in the rat microbiome. The experiment in a line: In vivo metabolism of levodopa: levodopa in circulation after inhibition of microbial TDC. The following applies: oral gavage, whole blood, LC-MS/MS. From the text:
The microbial enzyme TDC in the rat microbiome was inhibited with alpha-fluoromethyltyrosine (AFMT). On day 0, male Sprague Dawley rats were prophylactically treated with single oral gavage of vehicle, carbidopa, carbidopa+S-AFMT, or carbidopa+R-AFMT, respectively. On day 1, solutions of levodopa, carbidopa, S-AFMT in 1% methyl cellulose (w/v), and 1% ascorbic acid (w/w) in deionized (DI) water were applied by oral gavage to male Sprague Dawley rats.
Whole blood samples were drawn and levodopa concentrations were determined by LC-MS/MS at 0, 5, 10, 15, 30, 45, 90, and 180 min post-application (12 animals per time point).

Description for hepatocytes: In a 50 mL falcon tube, 40 mL of Gibco hepatocyte thawing medium was added. The remaining 10 mL of medium was used to gently transfer hepatocytes into a falcon tube using a wide-mouth pipette. The mixture was centrifuged briefly at low speed (100 g for 30 sec) to gather cells at the base of the tube. The supernatant was removed from the tube then bleached and the liquid discarded, leaving behind the cell pellet in the tube. About 4 mL of Gibco Williams E phenol-free medium was added to the tube to get a final count of 1 mil/mL, tilting gently by hand to scatter the cell pellet. […] Count was repeated twice and averaged to calculate the concentration in solution. Count of 1.2 mil/mL was found, and another 800 μL of incubation medium was added to the tube to bring the count to 1 mil/mL. Four wells of a 24 well plate were plated with 1 mL per well, and the plate was gently agitated to distribute a uniform number of cells per well. The plate was pre-incubated for about 10 min at 37° C. […] The plates were agitated to distribute compounds, then 200 μL aliquots were taken from each well and treated with an equal volume of ice-cold acetonitrile to quench catalysis and monitor progress. The quenching and sampling procedure was repeated at 4 h for 4-h samples. The quenched samples were centrifuged at 4000 g for 10 min at 4° C. and the supernatants were saved for analysis.

Consider `NC(Cc1ccc(O)cc1)(C(=O)O)C(F)F` (stereo not shown) [Compound K, 2-amino-3,3-difluoro-2-(4-hydroxybenzyl)propanoic acid], for which, in data set [1], the “IC50 @ 60 min” value is recorded as “Minor inhibition”.

As to `NC(CF)(Cc1cccc(O)c1)C(=O)O` (stereo not shown) [Compound R, 2-amino-3-fluoro-2-(3-hydroxybenzyl)propanoic acid], the “IC50 @ 60 min” value in data set [1] is “Minor inhibition”.

On to `N[C@](CF)(Cc1ccc(O)cc1)C(=O)O` [T, (R)-2-amino-3-fluoro-2-(4-hydroxybenzyl)propanoic acid], for which the IC50 in the data set on E. faecalis v583 stood at 18.5 µM; in data set [1] it was 82.3 µM.

With `CC(Cc1ccc(O)c(O)c1)(NN)C(=O)O` (single isomer, unassigned; (-)) [carbidopa, (−)-L-α-hydrazino-α-methyl-β-(3,4-dihydroxybenzene) propanoic acid monohydrate], the “reduction of the amount of levodopa required to produce a given response” value in data set [2] is recorded as “about 75%”.

On to `N[C@@](CF)(Cc1ccc(O)cc1)C(=O)O` [S, (S)-2-amino-3-fluoro-2-(4-hydroxybenzyl)propanoic acid], for which the 50% inhibitory concentration (IC50) in the data set with E. faecalis v583 amounted to 2 µM; in data set [1], 4 µM.

As for `N[C@@](CF)(Cc1ccc(O)cc1)C(=O)O` [AFMT, alpha-fluoromethyltyrosine], the “levels of levodopa at the earliest timepoint assessed” value in data set [3] is “elevated levels of levodopa at the earliest timepoint assessed”.

For the compound `COc1ccc(CCC(N)(CF)C(=O)O)cc1` (stereo not shown) [Compound U, 2-amino-2-(fluoromethyl)-4-(4-methoxyphenyl)butanoic acid], the IC50 in data set [1] is > 1000 µM.

Regarding `NCCc1cccc(O)c1` [meta-tyramine], in the data set on hepatocytes, the “metabolites produced by hepatocytes” value is “metabolic derivatives of meta-tyramine (e.g., 3-hydroxyphenylacetic acid and meta-tyramine-O-sulfate) were produced”.
